Source: article PMC11882969 (Nature Communications, 2025)
“And” between values parts separate entries of the source, which are not always exact repeats. Equal entries are not always repeated. Where two headings read alike, the source gives them in different places.

Columns and labels:
hCB1 = hCB1 (Homo sapiens, UniProt P21554); assay: bioSensAll ebBRET signaling profiling, hCB1; type: cell-based; set-up: host or cells: HEK293SL cells, transient PEI transfection; conditions: for Gi1 hCB1 response: Gi1 biosensor; for Gi1 hCB1 / GoB hCB1: single replicate values, FigS6a; for EC50: read-out: EC50 [95% CI]; for Emax: normalized to CP-55,940
CB1 (rCB1) [1] = target: T1, CB1 (rCB1) (Rattus norvegicus, UniProt P20272); assay: Radioligand competition binding, [3H]-CP-55,940, rat brain membranes; conditions: for pKi [95% CI]: rCB1
CB1 (rCB1) [2] = target: T1, CB1 (rCB1); assay: Single-point radioligand displacement screen; type: binding; conditions: 10 µM, 1 µM or 300 nM by cell colour (not visible)

T1 sequence (P20272 whole entry): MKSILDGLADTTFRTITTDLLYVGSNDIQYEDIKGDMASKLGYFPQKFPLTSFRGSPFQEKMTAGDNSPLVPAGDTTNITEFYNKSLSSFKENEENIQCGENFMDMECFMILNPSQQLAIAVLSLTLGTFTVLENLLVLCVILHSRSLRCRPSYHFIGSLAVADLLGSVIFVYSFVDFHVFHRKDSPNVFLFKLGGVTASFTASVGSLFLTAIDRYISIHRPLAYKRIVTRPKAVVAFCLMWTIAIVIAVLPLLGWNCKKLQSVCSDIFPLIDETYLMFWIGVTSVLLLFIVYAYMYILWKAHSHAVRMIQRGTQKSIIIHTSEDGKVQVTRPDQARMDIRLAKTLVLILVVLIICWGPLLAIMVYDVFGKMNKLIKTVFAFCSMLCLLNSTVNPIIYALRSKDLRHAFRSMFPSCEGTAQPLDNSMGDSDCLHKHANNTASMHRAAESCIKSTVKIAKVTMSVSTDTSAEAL
Chain of hCB1 (P21554 whole entry): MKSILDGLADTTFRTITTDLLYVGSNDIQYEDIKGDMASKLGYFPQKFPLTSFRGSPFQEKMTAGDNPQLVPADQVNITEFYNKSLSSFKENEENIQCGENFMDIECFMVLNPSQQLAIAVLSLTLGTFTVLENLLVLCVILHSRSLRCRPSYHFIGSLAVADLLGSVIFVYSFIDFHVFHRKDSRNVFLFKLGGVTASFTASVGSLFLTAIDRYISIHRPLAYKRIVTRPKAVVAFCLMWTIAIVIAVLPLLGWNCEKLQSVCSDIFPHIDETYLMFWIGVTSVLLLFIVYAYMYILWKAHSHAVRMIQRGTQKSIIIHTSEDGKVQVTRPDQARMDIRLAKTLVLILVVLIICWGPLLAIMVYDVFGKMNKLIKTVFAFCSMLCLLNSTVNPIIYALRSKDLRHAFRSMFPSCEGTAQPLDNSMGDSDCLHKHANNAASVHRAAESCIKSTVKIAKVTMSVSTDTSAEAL

CC(=O)C(c1cccs1)N(C)C(=O)c1cc(C)n(-c2cccc(C(F)(F)F)c2)n1 (stereo not drawn) [‘6829]
Gi1 hCB1 response (hCB1; Log [Compound] (M) -4.22186): 50.5929
Gi1 hCB1 response (hCB1; Log [Compound] (M) -4.63927): 80.4274
Gi1 hCB1 response (hCB1; Log [Compound] (M) -5.05788): 60.8884
Gi1 hCB1 response (hCB1; Log [Compound] (M) -5.47381): 50.1453
Gi1 hCB1 response (hCB1; Log [Compound] (M) -5.89285): 25.0333
Gi1 hCB1 response (hCB1; Log [Compound] (M) -6.31878): 14.2679
Gi1 hCB1 response (hCB1; Log [Compound] (M) -6.72585): 9.501
Gi1 hCB1 response (hCB1; Log [Compound] (M) -7.14267): -0.2577
Gi1 hCB1 response (hCB1; Log [Compound] (M) -7.55284): -0.3025
Gi1 hCB1 response (hCB1; Log [Compound] (M) -8): -3.011
Gi1 hCB1 response (hCB1; Log [Compound] (M) -8.22186): 2.07
Gi1 hCB1 response (hCB1; Log [Compound] (M) -8.39794): -6.077
Gi1 hCB1 response (hCB1; Log [Compound] (M) -8.68787): 2.45
Gi1 hCB1 response (hCB1; Log [Compound] (M) -9.15521): 5.629
Gi1 hCB1 response (hCB1; Log [Compound] (M) -9.61989): -3.749
Gi1 hCB1 response (hCB1; Log [Compound] (M) -10.0969): -4.958
Gi1 hCB1 response (hCB1; Log [Compound] (M) -10.5529): -8.091
Gi1 hCB1 response (hCB1; Log [Compound] (M) -11.0177): -9.456
Gi1 hCB1 response (hCB1; Log [Compound] (M) -11.4949): -2.585
Gi1 hCB1 response (hCB1; Log [Compound] (M) -11.9208): -4.1073
Gi1 hCB1 response (hCB1; Log [Compound] (M) -12.3979): -11.8513
Gi1 hCB1 response (hCB1; Log [Compound] (M) -12.8861): -4.7116
Gi1 hCB1 response (hCB1; Log [Compound] (M) -13, individual replicate values): -0.3696 and -4.085
Gi1 hCB1 (hCB1; Log [Compound] (M) -4.22186): 59.6278
GoB hCB1 (hCB1; Log [Compound] (M) -4.22186): 46.0809
Gi1 hCB1 (hCB1; Log [Compound] (M) -4.63927): 49.4067
GoB hCB1 (hCB1; Log [Compound] (M) -4.63927): 48.6345
Gi1 hCB1 (hCB1; Log [Compound] (M) -5.05788): 40.28
GoB hCB1 (hCB1; Log [Compound] (M) -5.05788): 42.8439
Gi1 hCB1 (hCB1; Log [Compound] (M) -5.47381): 35.5317
GoB hCB1 (hCB1; Log [Compound] (M) -5.47381): 37.2331
Gi1 hCB1 (hCB1; Log [Compound] (M) -5.89285): 23.7381
GoB hCB1 (hCB1; Log [Compound] (M) -5.89285): 25.7777
Gi1 hCB1 (hCB1; Log [Compound] (M) -6.31878): 13.3781
GoB hCB1 (hCB1; Log [Compound] (M) -6.31878): 16.7141
Gi1 hCB1 (hCB1; Log [Compound] (M) -6.72585): 9.694
GoB hCB1 (hCB1; Log [Compound] (M) -6.72585): 6.7333
Gi1 hCB1 (hCB1; Log [Compound] (M) -7.14267): 3.188
GoB hCB1 (hCB1; Log [Compound] (M) -7.14267): 2.399
Gi1 hCB1 (hCB1; Log [Compound] (M) -7.55284): 5.377
GoB hCB1 (hCB1; Log [Compound] (M) -7.55284): 1.374
Gi1 hCB1 (hCB1; Log [Compound] (M) -8): 4.359
GoB hCB1 (hCB1; Log [Compound] (M) -8): 2.831
Gi1 hCB1 (hCB1; Log [Compound] (M) -8.22186): 1.1836
GoB hCB1 (hCB1; Log [Compound] (M) -8.22186): -4.488
Gi1 hCB1 (hCB1; Log [Compound] (M) -8.39794): 5.593
GoB hCB1 (hCB1; Log [Compound] (M) -8.39794): 1.554
Gi1 hCB1 (hCB1; Log [Compound] (M) -8.68787): 1.615
GoB hCB1 (hCB1; Log [Compound] (M) -8.68787): -3.931
Gi1 hCB1 (hCB1; Log [Compound] (M) -9.15521): 2.463
GoB hCB1 (hCB1; Log [Compound] (M) -9.15521): -1.036
Gi1 hCB1 (hCB1; Log [Compound] (M) -9.61989): 0.7057
GoB hCB1 (hCB1; Log [Compound] (M) -9.61989): -1.161
Gi1 hCB1 (hCB1; Log [Compound] (M) -10.0969): 1.353
GoB hCB1 (hCB1; Log [Compound] (M) -10.0969): -3.463
Gi1 hCB1 (hCB1; Log [Compound] (M) -10.5529): 1.137
GoB hCB1 (hCB1; Log [Compound] (M) -10.5529): 1.105
Gi1 hCB1 (hCB1; Log [Compound] (M) -11.0177): 3.142
GoB hCB1 (hCB1; Log [Compound] (M) -11.0177): -0.532
Gi1 hCB1 (hCB1; Log [Compound] (M) -11.4949): 2.879
GoB hCB1 (hCB1; Log [Compound] (M) -11.4949): 1.392
Gi1 hCB1 (hCB1; Log [Compound] (M) -11.9208): 3.126
GoB hCB1 (hCB1; Log [Compound] (M) -11.9208): 1.392
Gi1 hCB1 (hCB1; Log [Compound] (M) -12.3979): 4.159
GoB hCB1 (hCB1; Log [Compound] (M) -12.3979): 2.561
Gi1 hCB1 (hCB1; Log [Compound] (M) -12.8861): 3.496
GoB hCB1 (hCB1; Log [Compound] (M) -12.8861): 2.705
Gi1 hCB1 (hCB1; Log [Compound] (M) -13): 3.327 and 1.677
GoB hCB1 (hCB1; Log [Compound] (M) -13): -2.744 and -3.607
pEC50 [95% CI] (hCB1; hCB1 Gi1): 5.4 [5.0 – 5.6]
pEC50 [95% CI] (hCB1; hCB1 GoB): 6.0 [5.8 – 6.2]
pEC50 [95% CI] (hCB1; hCB1 Gz): 5.9 [6.0 – 6.2]
EC50 (hCB1; hCB1 Gi1): 4060 nM
EC50 (hCB1; hCB1 Gz): 1350 nM
Emax (hCB1; read-out: Emax [95% CI], hCB1 Gi1): 68%
Emax (hCB1; read-out: Emax [95% CI], hCB1 GoB): 49%
Emax (hCB1; read-out: Emax [95% CI], hCB1 Gz): 70%
pKi [95% CI] (CB1 (rCB1) [1]): 6.0 [5.8 – 6.2]
Ki (CB1 (rCB1) [1]; read-out: Ki [95% CI], rCB1, [3H]-CP-55,940): 1050 nM

COC(=O)C(NC(=O)c1cc(C)n(-c2cccc(C#N)c2)n1)c1ccsc1 (stereo not drawn) [‘31604]
% 1H-CP-55,940 displacement (mean) from single point screen (CB1 (rCB1) [2]): 41.46%
pKi [95% CI] (CB1 (rCB1) [1]): 6.1 [6.0 – 6.2]
